One may read the inhibition as the relative decrease from the control value, in per cent.

The record followed here is ChEMBL document CHEMBL1155728, “New steroid glycosides from the starfish Asterias rathbuni” (J Nat Prod, 2001).

What all share (design): species or system Egg
A short description of data set [1]: Inhibition of cell division of fertilized eggs of Strongylocentrotus intermedius at 2.9 X 10 ' -5 M. The settings on record: fertilized sea urchin eggs.
Data set [2] is described as follows: Inhibition of cell division of fertilized eggs of Strongylocentrotus intermedius.
Data set [3] in a line: Inhibition of cell division of fertilized eggs of Strongylocentrotus intermedius at 7 X 10 ' -5 M. The settings on record: fertilized sea urchin eggs.

With `CC(C)=CC(=O)C[C@@H](C)[C@H]1CC[C@H]2[C@@H]3C[C@H](O)[C@H]4C[C@@H](OS(=O)(=O)O)CC[C@]4(C)C3=CC[C@]12C`, in data set [1], 29 µM produced 100% inhibition.
In turn, `CC(C)[C@H](CC[C@@H](C)[C@H]1C[C@H](OS(=O)(=O)[O-])[C@H]2[C@@H]3C[C@H](O)[C@H]4C[C@@H](O)CC[C@]4(C)[C@H]3CC[C@@]21C)O[C@@H]1OC[C@@H](O)[C@H](O)[C@H]1O.[Na+]` [AMURENSOSIDE A] gave an IC100 in data set [2] of 1.9 ×10⁻⁴ M.
Turning to `CC(C)[C@H](CC[C@@H](C)[C@H]1C[C@@H](O)[C@H]2[C@@H]3C[C@H](O)[C@H]4C[C@@H](O)CC[C@]4(C)[C@H]3CC[C@@]21C)O[C@@H]1OC[C@@H](O)[C@H](O)[C@H]1O` [RATHBUNIOSIDE R1], in data set [3], testing at 70 µM gave an inhibition of 100%.
As to `CC(C)[C@H](CC[C@@H](C)[C@H]1C[C@H](O)[C@H]2[C@@H]3C[C@@H](O)[C@@]4(O)C[C@@H](O)CC[C@]4(C)[C@H]3CC[C@@]21C)O[C@@H]1OC[C@@H](O)[C@H](O)[C@H]1O` [RATHBUNIOSIDE R2], in data set [2], the IC100 came to 1.7 ×10⁻⁴ M.
